According to patent US8536187B2 (Gilead Sciences, Inc., priority 2008, dated 2013):

Legend:
[1] = test system: HCV replicon in human hepatoma Huh-7 cell line; test: Anti-HCV replicon assay, EC50 (luciferase luminescence); type: cell-based; details: Hepatitis C virus, Huh-7, 72 h
Procedure, shortened: (§1)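 Cytotoxicity (CC50) read by CellTiter-Glo luminescence after 10 min, and antiviral EC50 by luciferase signal after 30 min lysis with substrate, both at room temperature. Preceding step: 3-day exposure of 6000 Huh-7 HCV replicon cells per well to compound dilution series at 37° C, 5% CO2, in 0.5% DMSO.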

[2] = CC50 assay (CellTiter-Glo) in Huh-7 HCV replicon cells; type: cell-based; details: human
Procedure, shortened: as §1

Compound	EC50 [1] [nM]	CC50 at 3 days ([2]; Table 2, 3 days incubation) [nM]	CC50 at 3 days ([2]; Table 1, 3 days incubation) [nM]
C[C@@H](Nc1nc(NC2(C(F)(F)F)CC2)c2nc(-c3cnc(NC4CC4)c(F)c3)ccc2n1)c1ccc(-n2cncn2)cc1 [Example 131, N^2-((R)-1-(4-(1H-1,2,4-triazol-1-yl)phenyl)ethyl)-6-(6-(cyclopropylamino)-5-fluoropyridin-3-yl)-N^4-(1-(trifluoromethyl)cyclopropyl) pyrido[3,2-d]pyrimidine-2,4-diamine]	100 to 250	1000 to 10000	
CC(C)(O)CNc1nc(NCC(F)(F)F)c2nc(-c3cccc(S(C)(=O)=O)c3)ccc2n1 [Example 159, 2-methyl-1-(6-(3-(methylsulfonyl)phenyl)-4-(2,2,2-trifluoroethylamino)pyrido[3,2-d]pyrimidin-2-ylamino)propan-2-ol]	100 to 250	> 10000	
COc1ccc(-c2ccc3nc(NCc4cccc(-n5cncn5)c4)nc(NCC(F)(F)F)c3n2)cc1S(C)(=O)=O [Example 20]	< 100		> 25000
NS(=O)(=O)c1ccc(CNc2nc(NC3(C(F)(F)F)CC3)c3nc(-c4ccc(OC(F)F)cc4)ccc3n2)cc1 [Example 61, 4-((6-(4-(difluoromethoxy)phenyl)-4-(1-(trifluoromethyl)cyclopropylamino)pyrido[3,2-d]pyrimidin-2-ylamino)methyl) benzenesulfonamide]	< 100	1000 to 10000	
CC#Cc1ccc2nc(NCc3cc(Cl)cc(S(N)(=O)=O)c3)nc(OC3(C)CC3)c2n1 [Example 311, 3-chloro-5-((4-(1-methylcyclo-propoxy)-6-(prop-1-ynyl)pyrido [3,2-d]pyrimidin-2-ylamino)methyl)benzenesulfonamide]	< 100	> 10000	
Fc1cc(-c2ccc3nc(NCc4cccc(-n5cncn5)c4)nc(NC4(C(F)(F)F)CC4)c3n2)cnc1NC1CC1 [Example 62, N^2-(3-(1H-1,2,4-triazol-1-yl)benzyl)-6-(6-(cyclopropylamino)-5-fluoropyridin-3-yl)-N^4-(1-(trifluoromethyl)cyclopropyl) pyrido[3,2-d]pyrimidine-2,4-diamine]	< 100	> 10000	
COc1ccc(-c2ccc3nc(N[C@H](C)c4ccc(-n5cncn5)cc4)nc(NC4(C(F)(F)F)CC4)c3n2)cc1S(C)(=O)=O [Example 94, N^2-((R)-1-(4-(1H-1,2,4-triazol-1-yl)phenyl)ethyl)-6-(4-methoxy-3-(methylsulfonyl)phenyl)-N^4-(1-(trifluoromethyl)cyclopropyl) pyrido[3,2-d]pyrimidine-2,4-diamine]	< 100	1000 to 10000	
C[C@@H](Nc1nc(NCC(F)(F)F)c2nc(-c3ccc(Cl)c(S(C)(=O)=O)c3)ccc2n1)c1ccc(S(N)(=O)=O)cc1 [Example 155, 4-((R)-1-(6-(4-chloro-3-(methylsulfonyl)phenyl)-4-(2,2,2-trifluoroethylamino)pyrido[3,2-d]pyrimidin-2-ylamino)ethyl)benzene-sulfonamide]	< 100	1000 to 10000	
FC(F)(F)C1(Nc2nc(NCc3ccc(-n4cncn4)cc3)nc3ccc(-c4ccc(NC5CC5)nc4)nc23)CC1 [Example 127, N^2-(4-(1H-1,2,4-triazol-1-yl)benzyl)-6-(6-(cyclopropylamino)pyridin-3-yl)-N^4-(1-(trifluoromethyl)cyclopropyl)pyrido[3,2-d] pyrimidine-2,4-diamine]	< 100	1000 to 10000	
NS(=O)(=O)c1cc(CNc2nc(NCC(F)(F)F)c3nc(-c4ccc(F)cc4)ccc3n2)ccc1F [Example 7, 2-Fluoro-5-{[6-(4-fluoro-phenyl)-4-(2,2,2-trifluoro-ethylamino)-pyrido[3,2-d]pyrimidin-2-ylamino]-methyl}-benzenesulfonamide]	< 100		10000 to 25000
COc1ccc(-c2ccc3nc(NCc4cc(F)cc(F)c4)nc(NC4(C(F)(F)F)CC4)c3n2)cc1S(C)(=O)=O [Example 40, N^2-(3,5-difluorobenzyl)-6-(4-methoxy-3-(methylsulfonyl)phenyl)-N^4-(1-(trifluoromethyl)cyclopropyl)pyrido[3,2-d] pyrimidine-2,4-diamine]	< 100	1000 to 10000	
Cc1ccc(-c2ccc3nc(NCc4cccc(S(C)(=O)=O)c4)nc(NCC(F)(F)F)c3n2)cc1S(C)(=O)=O [Example 173, N^2-(3-(methylsulfonyl)benzyl)-6-(4-methyl-3-(methylsulfonyl)phenyl)-N^4-(2,2,2-trifluoroethyl) pyrido[3,2-d]pyrimidine-2,4-diamine]	< 100	1000 to 10000	
FC(F)(F)C1(Nc2nc(NCc3cccc(-n4cncn4)c3)nc3ccc(-c4ccc(NC5CC5)nc4)nc23)CC1 [Example 70, N^2-(3-(1H-1,2,4-triazol-1-yl)benzyl)-6-(6-(cyclopropylamino)pyridin-3-yl)-N^4-(1-(trifluoromethyl)cyclopropyl) pyrido[3,2-d]pyrimidine-2,4-diamine]	< 100	> 10000	
C[C@@H](Nc1nc(NCC(F)(F)F)c2nc(C#CC3CC3)ccc2n1)c1ccc(S(N)(=O)=O)cc1 [Example 275, (R)-4-(1-(6-(2-cyclopropyl-ethynyl)-4-(2,2,2-trifluoro-ethylamino)pyrido[3,2-d]pyrimidin-2-ylamino)ethyl) benzenesulfonamide]	< 100	> 10000	
CS(=O)(=O)c1cccc(-c2ccc3nc(NCc4cccc(-n5cncn5)c4)nc(NCC(F)(F)F)c3n2)c1 [Example 16, 6-(3-Methanesulfonyl-phenyl)-N2-(3-[1,2,4]-triazol-1-yl-benzyl)-N4-(2,2,2-trifluoro-ethyl)-pyrido[3,2-d]pyrimidine-2,4-diamine]	< 100		> 25000
NS(=O)(=O)c1cc(CNc2nc(NCC(F)(F)F)c3nc(C#CC4CC4)ccc3n2)cc(C(F)(F)F)c1 [Example 278, 3-((6-(2-cyclopropylethynyl)-4-(2,2,2-trifluoroethylamino)pyrido[3,2-d]pyrimidin-2-ylamino)methyl)-5-(trifluoro-methyl)benzenesulfonamide]	100 to 250	> 10000	
Fc1cc(-c2ccc3nc(NCc4ccc(-n5cncn5)cc4)nc(NC4(C(F)(F)F)CC4)c3n2)cnc1NC1CC1 [Example 65, N^2-(4-(1H-1,2,4-triazol-1-yl)benzyl)-6-(6-(cyclopropylamino)-5-fluoropyridin-3-yl)-N^4-(1-(trifluoromethyl)cyclopropyl) pyrido[3,2-d]pyrimidine-2,4-diamine]	< 100	1000 to 10000	
COc1ccc(-c2ccc3nc(NCc4cccc(C(F)(F)F)c4)nc(NC4(C(F)(F)F)CC4)c3n2)cc1S(C)(=O)=O [Example 113, N^2-(3-(trifluoromethyl)benzyl)-6-(4-methoxy-3-(methylsulfonyl)phenyl)-N^4-(1-(trifluoromethyl)cyclopropyl)pyrido[3,2-d] pyrimidine-2,4-diamine]	100 to 250	> 10000	
CS(=O)(=O)c1cccc(-c2ccc3nc(NCc4ccc(-n5cncn5)cc4)nc(NCC(F)(F)Cl)c3n2)c1 [Example 196, N^2-(4-(1H-1,2,4-triazol-1-yl)benzyl)-N^4-(2-chloro-2,2-difluoroethyl)-6-(3-(methylsulfonyl)phenyl)pyrido [3,2-d]pyrimidine-2,4-diamine]	< 100	> 10000	
